# Data as given in patent US12188050B2, “Kidney organoids and methods of manufacturing” (MURDOCH CHILDRENS RESEARCH INSTITUTE, priority 2017, dated 2025).
# Entries after “also recorded” stand apart in the source; their conditions may differ.
# Key:
# Type in all cases: cell-based, human
# [1] = test system: kidney micro-organoids at day 7+18; assay: Drug toxicity testing in micro kidney organoids (TUNEL staining, RNA analysis); conditions: 0, 2.5 and 5 μg/ml for 24 hours
# Description: FIG. 8. Kidney micro-organoids provides a platform for drug toxicity screening.
# To evaluate the suitability of using the suspension culture method described herein to test for drug toxicity of kidneys in vitro, drug toxicity studies were conducted. Organoids produced by the method at day 7+18 were collected and randomized into treatment groups in a 24 well low attachment plates in 250 μl of media. Organoids were stimulated with different concentrations of cytotoxic drug Adriamycin (0, 2.5 and 5 μg/ml) for 24 hours. After stimulation, media was removed and organoids were fixed with 2% PFA for immunofluorescence staining analysis for apoptosis by using TUNEL staining and some organoids were lysed for RNA analysis (FIG. 8A-8D).
# [2] = test system: intermediate mesoderm (IM) cells differentiated from hPSCs or hES; assay: qPCR gene expression profiling of intermediate mesoderm at D7+0, FGF9 +/- 1 μM CHIR99021; conditions: low concentration CHIR (1 μM) days 5 to 7 with FGF9 and heparin; qPCR at D7+0
# From the text: FIG. 1. Generation of kidney micro-organoids in suspension culture. (A) Outline of the kidney micro-organoid differentiation protocol with images from a differentiation performed using CRL1502.C32 cells. (B) Bright field images showing uniform kidney micro-organoids on Day 7+18 (scale […]). (C, D1 and D2) Immunofluorescence and confocal images of micro-organoids showing formation of nephron segments independent of micro-organoid size and shape, including development of vascular structures (scale […]). (E) Bar graphs showing average fold change for intermediate mesoderm gene expression profiling by qPCR on Day 7+0 for FGF9+/−1 μM CHIR99021. The data represented as Mean, (F) Immunofluorescence for PAX2 for FGF9+/−1 μM CHIR99021 treatment (scale 50 μm) (D7+11). (G) Immunofluorescence and confocal images of nephron compartments within kidney micro-organoids; podocytes (NPHS1+ and MAFB+), proximal tubules (LTL+, CUBN+, LRP2+ and HNF4A+), distal tubules (ECAD), collecting duct (ECAD+ GATA3+) and endothelial cells (SOX17+ and PECAM1+) (scale 50 μm).
# hPSCs or hES were differentiated into intermediate mesoderm by exposing cells to high concentration of CHIR (7 μM) for the first 4 days in APEL™ 2 or TeSR™-E6 media (Stem cell technologies) media with 3.5% protein free hybridoma media (PFHM) (Thermo Fischer), APEL™ (Stem cell technologies) or E6 media (Stem cell technologies). […]
# [3] = test system: kidney organoids from monolayers of hPSC; assay: Effect of duration of initial 7 μM CHIR99021 on kidney organoid patterning (confocal microscopy); conditions: then low CHIR and FGF9+heparin to Day 7
# Description: FIG. 2. […] (A) Confocal image of micro-kidney organoid tubules on Day 7+18 showing FITC albumin uptake (scale 5 μm). (B) Confocal images of micro-kidney organoids generated using 4 different cell lines, including hES (H9 GAP-Trap Luc2, hES3 SOX17mCherry) and iPS (CRL1502.C32 and CRL1502.3) on Day 7+18 with antibodies labelling different nephron segments (scale 50 μm). (C, D and E) hES3 SOX17mCherry derived micro-organoids generated after exposure to different days of initial 7 μM CHIR99021 for 3, 4, 5 and 6 days treatment showing bright field (C, scale 100 μm) and immunofluorescence confocal images showing SOX17+ vasculature (D) and MEIS1/2/3+ stroma (E) (scale 100 μm).
# To optimise differentiation within the kidney organoid protocol, monolayers of hPSC were stimulated using a fixed concentration of CHIR99021 (7 μM) for varying durations (3, 4, 5 and 6 days) before continued culture to Day 7 in the presence of low CHIR and FGF9+heparin (FIGS. 2C, 2D and 2E). After 18 days, resulting kidney organoids were evaluated for kidney structure using confocal microscopy (FIGS. 2C, 2D and 2E). […] 4 days of initial 7 μM CHIR99021 induction was confirmed as optimal and used in further studies.
# [4] = test system: C32 derived swirler kidney organoids; assay: Glomerular podocyte maturation in swirler organoids with atRA (immunofluorescence, qPCR)
# From the text: FIG. 7. All Trans-Retinoic Acid helps in the improvement of glomerular maturation in kidney micro-organoids. Immunofluorescence analysis of C32 swirler organoids generated by swirler suspension culture. (A) Organoids generated without supplementation at atRA. […] (C) qPCR analysis of organoids generated with and without atRA at different time points (D7+11 and D7+18).
# To determine whether addition of all trans retinoic acid (atRA) would facilitate glomerular maturation of the organoids produced by the swirler culture method described in Examples 1-3, atRA was supplemented in the media after D7+0. All trans retinoic acid (2.5 μM) was added from D7+5 to D7+10 on C32 derived swirler organoids (FIG. 5).
smiles,measurement,setting,value
COc1cccc2c1C(=O)c1c(O)c3c(c(O)c1C2=O)C[C@@](O)(C(=O)CO)C[C@@H]3O[C@H]1C[C@H](N)[C@H](O)[C@H](C)O1 [Adriamycin],toxicity by expression of TUNEL apoptotic marker,[1],induces dose dependent toxicity
same,expression of kidney specific genes in micro-organoids,[1]; RNA analysis,reduces the expression of kidney specific genes
Cc1c[nH]c(-c2cnc(NCCNc3ccc(C#N)cn3)nc2-c2ccc(Cl)cc2Cl)n1 [CHIR99021],"expression of PAX2, LHX1 and OSR1 (cap mesenchyme) compared to short CHIR exposure groups",[2],more than 2 folds
same,increase in expression of Wnt11 and GATA3 (ureteric epithelium) compared to short CHIR exposure groups,[2],more than 2 fold
same,kidney organoid structure after 18 days,[3]; 7 μM CHIR99021 for 4 or 5 days,generated kidney organoids containing patterning nephrons
same,kidney organoid structure after 18 days,[3]; 7 μM CHIR99021 for 3 days,failed to generate a kidney morphology
same,kidney organoid structure after 18 days,[3]; 7 μM CHIR99021 for 6 days,"generating larger kidney organoids with greater NPHS1 staining, contained an expanded MEIS1^+ stromal population apparently compromising epithelial structure"
"CC1=C(/C=C/C(C)=C/C=C/C(C)=C/C(=O)O)C(C)(C)CCC1 [atRA, all trans retinoic acid]",podocyte phenotype by immunofluorescence compared to control group,"[4]; 2.5 μM atRA from D7+5 to D7+10, analysis after D7+18",improved the podocyte phenotype; also recorded: improved glomerular podocyte maturation
same,mRNA expression of glomerular and proximal tubular markers (qPCR) compared to control,"[4]; 2.5 μM atRA, D7+11 and D7+18 samples",increased expression of glomerular markers such as NPHS1 and proximal tubular markers like CUBN
